Data taken from patent US20240350483A1, “COMBINATION THERAPY FOR THE TREATMENT OF PSYCHIATRIC DISORDER” (GSKB Pharmaceuticals, LLC, priority 2023, published 2024).

What was measured:
[1] = test system: Patients with Major Depressive Disorder (MDD); assay: Case 2: outpatient treatment of persistent suicidal ideation; format: in vivo, human
Source text: Treatment of Chronic Suicidal Ideation and Behavior in Patients with Major Depressive Disorder (MDD).
A person presented to the outpatient psychiatric clinic accompanied by their spouse and child after being referred by a friend. Their condition had not improved over the past several years despite ongoing psychiatric treatment including in-patient hospitalizations and multiple medication failures. They reported they had been, “feeling the stress”, experiencing racing and ruminating thoughts, difficulty with conversation, and panic. They expressed persistent suicidal ideation. They denied current or past self-injurious behavior.
• Sensorium: Alert and oriented to person, place, time, situation • Appearance: Casually dressed, well kempt, appeared older than stated age, thin to normal body habitus • Affect: Constricted, tearful at times • Mood: Depressed • Speech: Normal rate, tone, and rhythm. Louder when irritable and argumentative • Thought Content: Passive suicidal ideation, no delusions. • Thought Process: Coherent, logical, mildly circumstantial. • Perception: No auditory or visual hallucinations • Memory: Intact • Abstract Thinking: Intact • Judgment: Fair to good • Insight: Good
During their initial psychiatric evaluation, they were diagnosed with Bipolar Disorder, Unspecified; Rule out Amphetamine-induced psychosis due to their intermittent paranoia, impulsivity, and agitation. […]

[2] = test system: Patients with Major Depressive Disorder (MDD); assay: Case Study 1: outpatient treatment of chronic suicidal ideation and behavior; format: in vivo, human
Method: Treatment of Chronic Suicidal Ideation and Behavior in Patients with Major Depressive Disorder (MDD). A married person and parent of three, presented to the outpatient clinic Jul. 16, 2019 to establish care with a new psychiatrist for management of their depression, mood swings, and persistent suicidal ideations. They reported that their current medications, bupropion XL 300 mg q daily, valproic acid 500 mg BID, quetiapine 200 mg daily, and venlafaxine XR 150 mg BID, modafinil 200 mg q AM and noon, buspirone 10 mg TID are not helping. They had been experiencing acute daily changes in mood consisting of unhappiness, irritability, and anger with lead to arguments with their spouse and family. They had been suffering from persistent depression, self-harm, and suicidal impulses. They had three previous suicide attempts resulting in hospitalization, the most recent being six years prior. • During the Initial Psychiatric Evaluation, they were alert and oriented to person, place, time, and situation. […]

In the case of `CCc1nn(CCCN2CCN(c3cccc(Cl)c3)CC2)c(=O)n1CCOc1ccccc1` [nefazodone, 1-(3-[4-(3-chlorophenyl)piperazin-1-yl]propyl)-3-ethyl-4-(2-phenoxyethyl)-1H-1,2,4-triazol-5 (4H)-one], the “suicidal thoughts after restarting nefazodone” value ([1]; nefazodone restarted and slightly increased, close follow up) is reported as “rapid disappearance”, the “suicidal ideation after stopping nefazodone” value ([1]; nefazodone stopped for several weeks, after eight months of stability) is reported as “having suicidal ideation” and the “suicidal ideations after forgetting and running out of nefazodone” value ([2]; Nov. 11, 2019, treatment interrupted) is reported as “more suicidal ideations”. The side effect reported ([2]; suspected to be caused by increase in nefazodone to 200 mg BID) was “drowsiness”.
